Experimental data as given in US9206200B2, “N-linked lactam M1 receptor positive allosteric mogulators” (Merck Sharp & Dohme Corp., priority 2011, dated 2015).

Molecular target: T1, acetylcholine muscarinic M1 receptor (Homo sapiens, UniProt P11229)
T1 construct: expressed in transfected cells; host or cells: CHOnfat cells (CHO cells with an NFAT reporter) expressing hM1, kept under Geneticin selection
T1 sequence (P11229 1-460): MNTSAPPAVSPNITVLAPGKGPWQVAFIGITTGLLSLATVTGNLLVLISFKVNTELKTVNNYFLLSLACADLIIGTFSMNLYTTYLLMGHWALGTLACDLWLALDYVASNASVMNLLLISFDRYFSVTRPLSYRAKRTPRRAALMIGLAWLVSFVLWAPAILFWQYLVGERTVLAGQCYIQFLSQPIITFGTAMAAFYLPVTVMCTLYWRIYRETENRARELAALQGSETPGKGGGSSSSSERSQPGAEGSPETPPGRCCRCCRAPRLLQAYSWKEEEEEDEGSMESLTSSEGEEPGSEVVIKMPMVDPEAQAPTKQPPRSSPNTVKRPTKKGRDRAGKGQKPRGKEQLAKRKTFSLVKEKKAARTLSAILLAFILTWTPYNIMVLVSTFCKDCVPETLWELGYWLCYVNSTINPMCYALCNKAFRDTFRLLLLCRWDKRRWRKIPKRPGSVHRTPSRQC
Experiment: muscarinic FLIPR assay: intracellular calcium in CHOnfat/hM1 cells, potentiation of EC20 acetylcholine
Type: cell-based
Conditions: Table 2; CHOnfat/hM1 cells, FLIPR, EC20 acetylcholine (3 nM final); read-out: M1 Pot.
In short: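 CHOnfat cells stably expressing human M1, Fluo-4AM-loaded, in HBSS with 20 mM HEPES, 2.5 mM probenecid, 1% BSA. Compounds preincubated 4 min (printed "4 mM") before an EC20 acetylcholine challenge (3 nM final). FLIPR intracellular Ca²⁺ signal compared with 3 nM acetylcholine alone to detect potentiation.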

EC50 [nM] | SMILES
480 | CC1c2c(cc(CN3CCN(c4ccc(F)cc4)CC3)c3cccnc23)C(=O)N1C1CCCCC1O (centres unmarked) [Example 172, 5-{[4-(4-fluorophenyl)piperazin-1-yl]methyl}-8-(2-hydroxycyclohexyl)-9-methyl-8,9-dihydro-7H-pyrrolo[3,4-h]quinolin-7-one]
100 | CC1c2c(cc(CN3CCN(c4ccc(F)cc4)CC3)c3cccnc23)C(=O)N1C1CCCCC1O (centres unmarked) [Example 173, 5-{[4-(4-fluorophenyl)piperazin-1-yl]methyl}-8-(2-hydroxycyclohexyl)-9-methyl-8,9-dihydro-7H-pyrrolo[3,4-h]quinolin-7-one]
18 | O=C1c2cc(CN3CCN(c4ccccc4)CC3)c3cccnc3c2CN1C1CCCCC1O (centres unmarked) [Example 174, 8-(2-hydroxycyclohexyl)-5-[(4-phenylpiperazin-1-yl)methyl]-8,9-dihydro-7H-pyrrolo[3,4-h]quinolin-7-one]
490 | CC1c2c(cc(CN3CCN(c4ccccc4)CC3)c3cccnc23)C(=O)N1C1CCCCC1O (centres unmarked) [Example 175, 8-(2-hydroxycyclohexyl)-9-methyl-5-[(4-phenylpiperazin-1-yl)methyl]-8,9-dihydro-7H-pyrrolo[3,4-h]quinolin-7-one]
93 | CC1c2c(cc(CN3CCN(c4ccccc4)CC3)c3cccnc23)C(=O)N1C1CCCCC1O (centres unmarked) [Example 176, 8-(2-hydroxycyclohexyl)-9-methyl-5-[(4-phenylpiperazin-1-yl)methyl]-8,9-dihydro-7H-pyrrolo[3,4-h]quinolin-7-one]
